Laboratory results from article PMC12848680, “Microbial Cross-Talk: Unlocking the Cytochalasin Diversity from a Termite-Associated Xylaria” (JACS Au, 2025).
≈ marks a conversion by molar mass, not a printed value. Like-named read-outs stand apart in the source and are kept apart here.

Columns and labels:
[1] = tested on: CHO-K1 (chinese hamster ovary cells); test: Cytotoxicity assay (MTT, 5 d) on CHO-K1; format: cell-based; conditions: Cricetulus griseus, CHO-K1, 120 h
Protocol: (§1) Cytotoxicity assay: A549 (human lung carcinoma cell line; ACC 107) and CHO-K1 (chinese hamster ovary cells; ACC 110) were obtained from the German Collection of Microorganisms and Cell Cultures (DSMZ) and cultured under the conditions recommended by the depositor. Cells were propagated in Dulbeccos’s Modified Eagle’s Medium (DMEM) and Ham’s F12 medium, respectively, supplemented with 10% fetal bovine serum (FBS), and seeded at 6×10^3 cells per well of 96-well plates in 120 μL of complete medium. After 2 h of equilibration (37 °C, 5% CO2), the cells were treated with a serial dilution of cytochalasins in 60 µL growth medium. Cytochalasins, doxorubicin as reference, as well as the solvent control were tested as duplicates in two independent experiments. After 5 d of incubation (37 °C, 5% CO2), a total of 20 μL of 5 mg/ml MTT (thiazolyl blue tetrazolium bromide) in phosphate -buffered saline (PBS) were added to each well […]
(§2) and the cells were further incubated for 2 h at 37 °C before the supernatant was discarded.
(§3) Subsequently, the cells were washed with 100 μL of PBS and treated with 100 μl of 2-propanol/10 N HCl (250:1) to dissolve formazan granules. Cell viability was measured as percentage relative to the respective solvent control by measuring the absorbance at 570 nm using a microplate reader (Tecan Infinite M200Pro). GraphPad Prism (version 10.0.3, GraphPad, Boston, MA, USA) was used for sigmoidal curve fitting to determine the IC50 values.

[2] = tested on: A549 (human lung carcinoma cell line); test: Cytotoxicity assay (MTT, 5 d) on A549; format: cell-based; conditions: for IC50: Homo sapiens, A549, 120 h, MTT, 5 d incubation; for Cytotoxic activity against A549 (in words): positive control doxorubicin
Protocol: as §1, §2, §3

in vitro [3] = format: in vitro ADME, mouse; conditions: for microsomal CLint: C57BL/6, mouse, microsomes; for half-life: mouse, read-out: Mouse liver microsome t1/2; for half-life / Mouse liver microsome t1/2: 1 μM compound, 0.5 mg/mL pooled C57BL/6 microsomes
Protocol: Assays in liver microsomes: For metabolic stability, the compound (1 μM) was incubated with 0.5 mg/mL pooled mouse (C57BL/6) microsomes (Xenotech, Kansas City, USA), 2 mM NADPH, 10 mM MgCl2 at 37 °C for 120 min on a microplate shaker. The metabolic stability of testosterone, verapamil and ketoconazole were determined in parallel to confirm the enzymatic activity of mouse/rat liver microsomes. The incubation was stopped after defined time points by precipitation of aliquots of the incubation mixture with 2 volumes of cold internal standard solution (15 nM diphenhydramine in 10% methanol/acetonitrile). Samples were stored on ice until the end of the incubation and precipitated protein was removed by centrifugation (15 min, 4 °C, and 4,000 g). Concentration of the remaining test compound at the different time points was analyzed by HPLC-MS/MS (Vanquish Flex coupled to a TSQ Altis Plus, Thermo Fisher, Dreieich, Germany) and used to determine half-life (t1/2). […]

in vitro [4] = format: in vitro ADME, mouse; conditions: 1 μM compound, pooled CD-1 mouse plasma, read-out: Mouse plasma t1/2
Protocol: Plasma stability assays: To determine stability in plasma, the compound (1 μM) was incubated with pooled CD-1 mouse plasma (Neo Biotech, Nanterre, France). Samples were taken by mixing aliquots with 4 volumes of cold internal standard solution (12.5 nM diphenhydramine in 10% methanol/acetonitrile). The plasma stability of procain, propantheline and diltiazem were determined in parallel to confirm the enzymatic activity. Samples were stored on ice until the end of the incubation and precipitated protein was removed by centrifugation (15 min, 4 °C, 4,000 g, two centrifugation steps). Concentration of the remaining test compound at the different time points was analyzed by HPLC-MS/MS (Vanquish Flex coupled to a TSQ Altis Plus, Thermo Fisher, Dreieich, Germany). […]

E. coli ΔacrB (JW0451-2) = test: Antibacterial activity against E. coli ΔacrB; format: cell-based; conditions: Escherichia coli, read-out: E. coli ΔacrB (JW0451-2) MIC
[5] = tested on: Staphylococcus aureus Newman; test: Antibacterial activity against S. aureus Newman; format: cell-based; conditions: Table S22
[6] = Table S22, intrinsic clearance calculated from microsomal metabolism data
[7] = Table 1, intrinsic clearance from microsomal metabolism data

| Structure (SMILES) | IC50 ([1]; Table S22, 5 d incubation) [µg/mL] | IC50 ([2]; Table S22) [µg/mL] | microsomal CLint (in vitro [3]; [6]) [µL/min/mg] | half-life (in vitro [3]; Table S22) [h] | half-life at 1 μM (in vitro [4]; Table S22) [h] | MIC (E. coli ΔacrB (JW0451-2)) [µg/mL] | MIC [5] [µg/mL] | IC50 ([1]; Table 1, 5 d incubation) [µg/mL] | IC50 ([2]; Table 1) [µg/mL] | Mouse liver microsome t1/2 (in vitro [3]; Table S22) [h] | half-life (in vitro [3]; Table 1, 120 min) [h] | half-life at 1 μM (in vitro [4]; Table 1) [h] | Cytotoxic activity against A549 (in words) [2] | microsomal CLint (in vitro [3]; [7]) [µL/min/mg] |
| --- | --- | --- | --- | --- | --- | --- | --- | --- | --- | --- | --- | --- | --- | --- |
| CC1CC=CC2C3OC3(C)C(C)C3C(Cc4cccc(Br)c4)NC(=O)C23C(O)C2OC2C(C)(O)C1=O (stereo not shown) [Compound 19, m-bromo-deacetyl-19,20-epoxycytochalasin Q] | 0.63 ± 0.24 (≈ 1.12 µM) | > 37 | 60 ± 4 | 0.385 ± 0.025 | > 4 | > 64 | > 64 | – | – | – | – | – | – | – |
| CC1CC=CC2C3OC3(C)C(C)C3C(Cc4ccccc4Br)NC(=O)C23C(=O)C2OC2C(C)(O)C1=O (stereo not shown) [Compound 20, o-bromo-19,20-epoxy-21-oxocytochalasin Q] | 1.38 ± 0.04 (≈ 2.47 µM) | 0.62 ± 0.04 (≈ 1.11 µM) | 234 ± 28 | 0.1 ± 0.0117 | > 4 | > 64 | > 64 | – | – | – | – | – | – | – |
| C[C@H]1C/C=C/[C@H]2[C@@H]3O[C@]3(C)[C@@H](C)[C@H]3[C@H](Cc4ccccc4Br)NC(=O)[C@]32C(=O)C[C@@H](O)[C@@](C)(O)C1=O [Compound 21, o-bromo-19-hydroxy-21-oxocytochalasin Q] | 3.04 ± 0.18 (≈ 5.42 µM) | 0.79 ± 0.24 (≈ 1.41 µM) | 124 ± 9 | 0.187 ± 0.0133 | > 4 | > 64 | > 64 | – | – | – | – | – | – | – |
| CC(=O)OC1C2OC2C(C)(O)C(=O)C(C)CC=CC2C(O)C(C)=C(C)C3C(CC(=O)O)NC(=O)C213 (stereo not shown) [Compound 22, xylachalasin A] | – | – | < 11.6 | – | – | > 64 | > 64 | > 37 | > 37 | >2 | > 2 | > 4 | – | – |
| CC(=O)OC1C(C)=C(C)C2C(Cc3ccccc3)NC(=O)C23C1C=CCC(C)C(=O)C(C)(O)C1OC1C3OC(C)=O (stereo not shown) [Compound 23, 7-acetyl-19,20-epoxycytochalasin C] | – | – | – | – | – | > 64 | > 64 | 15.7 ± 3.05 (≈ 27.7 µM) | > 37 | – | 0.102 ± 0.0167 | > 4 | pronounced reduced activity | 231 ± 36 |
| CC(=O)OC1C2OC2C(C)(O)C(=O)C(C)CC=CC2C3OC3(C)C(C)C3C(Cc4ccccc4)N(C(C)=O)C(=O)C213 (stereo not shown) [Compound 24, N-acetyl-19,20-epoxycytochalasin Q] | 3.06 ± 0.5 (≈ 5.41 µM) | 0.72 ± 0.12 (≈ 1.27 µM) | 558 ± 58 | 0.0417 ± 0.005 | > 4 | > 64 | > 64 | – | – | – | – | – | – | – |
| C#CCCC1(CCC(=O)OC2C(C)=C(C)C3C(Cc4ccccc4)NC(=O)C34C2C=CCC(C)C(=O)C(C)(O)C2OC2C4OC(C)=O)N=N1 (stereo not shown) [Compound 25, 7-diazirin-19,20-epoxycytochalasin C] | – | – | – | – | – | > 64 | > 64 | 14.2 ± 1.93 (≈ 21.2 µM) | 24.9 (≈ 37.1 µM) | – | 0.0283 ± 0.01 | > 4 | pronounced reduced activity | 907 ± 388 |
| C#CCCC1(CCC(=O)OC2C(=C)C(C)C3C(Cc4ccccc4)NC(=O)C34C2C=CCC(C)C(=O)C(C)(O)C2OC2C4OC(C)=O)N=N1 (stereo not shown) [Compound 26, 7-diazirin-19,20-epoxycytochalasin D] | 7.02 ± 1.16 (≈ 10.4 µM) | 10.3 (≈ 15.3 µM) | 1020 ± 120 | 0.0233 ± 0.00167 | > 4 | > 64 | > 64 | – | – | – | – | – | – | – |
| CC(=O)OC1C2OC2C(C)(O)C(=O)C(C)CC=CC2C(O)C3(C)OC3(C)C3C(Cc4ccccc4)NC(=O)C213 (stereo not shown) [Compound 27, 19,20-epoxycytochalasin N] | – | – | – | – | – | > 64 | > 64 | 10.6 ± 1.42 (≈ 19.6 µM) | 0.84 ± 0.04 (≈ 1.56 µM) | >2 | > 2 | 2.22 ± 0.15 | – | < 11.6 |
